Experimental data as given in patent publication US20090069418A1, “Compositions and Methods for the Treatment of Disorders Associated with Aberrant Vasodilation” (priority 2007, published 2009).
Where two headings read alike, the source gives them in different places.

What was measured:
[1] = AUDA-BE and its metabolites measured in brain tissue; type: in vivo, mice; conditions: for levels detected in homogenates of brain tissue: after AUDA-BE injection, methanol/chloroform extraction
Description: This concentration was also biologically effective in lowering blood pressure in hypertensive model (Imig et al. (2005) Hypertension 46:975-81). Therefore, in these experiments, the levels of sEH inhibitors in the blood are in the concentration range expected to inhibit the enzyme.

[2] = tested on: neonatal murine cardiomyocytes; test: Oxygen-glucose deprivation of cultured cardiomyocytes transduced with TAT-hsEH, cell death by propidium iodide; type: cell-based; conditions: for cell survival after OGD: all polymorphisms/groups tested except Arg287Gln
Method: Post natal Day 7-8 C57BL\6 mice were used. 3-4 hearts were obtained from same-gender mice. Cells were dissociated with 0.625% wt/volume trypsin in Ca^2+ and Mg^2+ free HBSS. The cells were centrifuged and re-suspended in FBS-M199. Cells were supplemented with estrogen-free 15% FBS, 100 U/ml penicillin, 100 μg/ml streptomycin, and 25 μM cytosine arabinoside. The cells were then plated at 37° C. for 1 hour under a water-saturated atmosphere of 5% CO2-[…]. Suspended cells were collected and plated at 1.0×10^5 cells/cm^2 and incubated as above for 24 hours.
Six TAT-hsEH fusion proteins, including one wild type and five EPHX2 mutants (Lys55Arg, Arg103Cys, Cys154Tyr, Arg287Gln, and Arg103Cys/Arg287Gln), were expressed and purified as reported (Koerner et al. (2007) J. Neurosci., 27:4642-4649).
TAT-hsEH fusion proteins were added to the medium of cultured cardiomyocytes to the final concentration of 100 nM. The cells were incubated at 37° C. for 24 hours before the onset of oxygen-glucose deprivation.
For oxygen-glucose deprivation (OGD), cells were placed in a Plexiglas hypoxia chamber under 100% N2 at 37° C. and glucose-free medium (MEM/HBSS). For reoxygenation, cells were placed in 21% O2 (5% CO2) and glucose-replete FBS-M199 medium.
Cell death was assessed via propidium iodide (PI, 5 μM) with >300 cells/sample.
Cultured neonatal murine cardiomyocytes were transduced with five human EPHX2 variants linked to the protein transduction domain TAT. Cultures were subjected to 1.5 hours of oxygen and glucose deprivation followed by 3 hours of re-oxygenation, with or without sEH substrate 14,15-EET. Cell death was assessed by propidium iodide (% of all cells, mean±SEM, n=5-9 replicates). Successful transduction was confirmed by immunoblot. All mutants reduced cell death compared to the human wild-type EPHX2 (rh-sEHWT, 63±1%), but only the Arg287Gln mutations was different from untransduced controls (FIG. 13B).

mice [3] = type: in vivo
Description: Male mice between the ages of 16-24 weeks were anesthetized with isoflurane (induction 4-5 vol %; maintenance 1-2 vol %), intubated with a 20G plastic IV catheter, and mechanically ventilated using a rodent ventilator (Inspira, volume-controlled, Harvard Apparatus, MA). ECG and rectal temperature were continuously monitored using a PC-based recording device (PowerLab 8/30, ADInstruments, Colorado Springs, Colo.). The animals were positioned in a right lateral decubital position on a heating pad and rectal temperature was maintained at 37° C. throughout the experiment. A PE-10 catheter was inserted into the left jugular vein for intravenous drug infusion. Using a dissecting microscope, a left-sided thoracotomy was performed in the 4th intercostal space. […] A ligature (8-0 Monosof MV-135-4, ⅜ 5 mm tapered needle, Syneture, Norwalk, Colo.) was placed around the left coronary artery (LCA) approximately 2 mm distal to the left atrial margin. The suture was fed through a short section of PE-10 tubing to form a snare to allow temporary occlusion. The LCA was occluded for 40 minutes; occlusion was confirmed by persistent ECG changes during occlusion and visual paling of the left ventricle (LV). After 40 minutes the snare was released and reperfusion was confirmed with visual hyperemia of the LV and return of the ECG changes. After 2 hours of reperfusion the LCA was re-occluded and fluorescent polymer microspheres (0.4% solution, diameter 1-10 μm; Duke Scientific Corporation, Palo Alto, Calif.) were infused via needle puncture of the LV apex. […] Heart was then excised, rinsed in normal saline, and the right and left atria were removed under the dissecting microscope. The remaining left and right ventricles were weighed and then sliced into seven sections (d=1 mm) for imaging and staining.
Heart sections were immediately photographed with a digital camera (Canon Powershot A620) under UV light for determination of AAR. Infarct size (I) was determined by staining the heart sections in 1% 2,3,5 triphenyltetrazolium chloride (TTC) in phosphate buffer at pH 7.4 for 10 minutes, followed by 10% neutral buffered formalin (NBF) bath overnight. Pictures were taken the next day under full spectrum light. TTC stained non-infarcted myocardium red, while infarcted myocardium remained white. Both AAR and I areas were calculated in a blinded fashion using standard imaging software (Photoshop Elements 4). A calibration ruler was present in each picture to convert pixels into volume. TTC slices were volume corrected for dehydration following formalin immersion.
The 14,15-EET was obtained from BIOMOL (Plymouth Meeting, Pa.). It was dissolved in a vehicle composed of 100% ethanol and saline (1:3), resulting in a final ethanol solution of 25%. […] SNC-162, a non-peptide δ-opioid receptor agonist, was used for comparison of the magnitude of cardioprotection found within the epoxide pathway. SNC-162 (0.1 μg/g iv over 10 minutes) was dissolved in 10% DMSO.

mice [4] = test: MCAO in mice, infarct size (Example 6); type: in vivo
Description: Transient focal cerebral ischemia was induced in adult male mice (20 to 26 g body weight) using the intraluminal MCAO technique, as previously described (Alkayed et al. (2001) J. Neurosci., 21:7543-7550). Briefly, mice were anesthetized with halothane (1.5 to 2% in O2-enriched air by face mask), and kept warm with water pads. A small laser-Doppler probe was affixed to skull to monitor cortical perfusion and verify vascular occlusion and reperfusion. A silicone-coated 6-0 nylon monofilament was inserted into the right internal carotid artery (ICA) via the external carotid artery (ECA) until laser-Doppler signal dropped to <30% of baseline. After securing the filament in place, the surgical site was closed, and the animal was awakened and assessed at 2 hours of occlusion for neurological deficit using a simple neurological scoring system as follows: 0=no deficit, 1=failure to extend forelimb, 2=circling, 3=unilateral weakness, 4=no spontaneous motor activity. […] Infarct size was measured at 24 hours after MCAO in 2-mm thick coronal brain sections (5 total) using 2,3,5-triphenyltetrazolium chloride (TTC) staining and digital image analysis. […] Slices were photographed and infracted (unstained) and uninfarcted (red color) areas were measured with MCID software (InterFocus, Linton, England) and integrated across all 5 slices. […]

[5] = Pharmacokinetics of AUDA-BE and its metabolites in plasma after single intraperitoneal injection; type: in vivo, C57Bl/6 mice
Method: A second set of animals was injected with sesame oil alone (vehicle). […] (2002) Biochem. Pharmacol., 63:1599-608; Watanabe et al. (2006) Anal. Chim. Acta., 559:37-44). Briefly, blood samples (10 μL) were collected in 1.5 mL Eppendorf microcentrifuge tubes, weighed, and vortexed with 100 μL of purified water. […] Aliquots (10 μL) were analyzed by liquid chromatography coupled mass spectroscopy LC-MS/MS (Watanabe et al. (2006) Anal. Chim. Acta., 559:37-44; Watanabe and Hammock (2001) Anal. Biochem., 299:227-34). The concentration of sEH inhibitors were quantified in extracts using HPLC with positive mode electrospray ionization and tandem mass spectrometry. Analytes were quantified on a 5-point curve with internal standard methods. Surrogate recoveries were evaluated by quantification against the internal standard. Surrogate recoveries were 70% for all reported plasma samples, the analysis of reagent blanks, matrix spikes, and analytical replicates were used to document method stability during this study. […] Differences in infarct size, enzyme activity, and blood flow rates were analyzed with a t-test for two groups and analysis of variance with post hoc Newman-Keuls multiple range test for multiple groups. The pharmacokinetic profile was examined for goodness of fit to a noncompartmental or multicompartmental models. Pharmacokinetic parameters were then obtained by fitting the blood-concentration-time data to a non-compartmental model with the WinNonlin software (Pharsight, Mountain View, Calif., USA), as described previously (Watanabe et al. (2006) Anal. Chim. Acta., 559:37-44). The criterion for statistical significance was set at P<0.05. All values are reported as mean±s.e.m.

C57Bl/6 mice = test: Middle cerebral artery occlusion in mice, infarct size (Example 2); type: in vivo; conditions: MS-PPOH alone
Method: (2001) J. Neurosci., 21:7543-50). […] A small laser-Doppler probe was affixed to the skull to monitor cortical perfusion and verify vascular occlusion and reperfusion. […] After securing the filament in place, the surgical site was closed, and the animal was awakened and assessed at 2 hours of occlusion for neurological deficit using a simple neurological scoring system as follows: 0=no deficit, 1=failure to extend forelimb, 2=circling, 3=unilateral weakness, 4=no spontaneous motor activity. Mice with clear neurological deficit were re-anesthetized, laser-Doppler probe re-positioned over same site on the skull, and the occluding filament was withdrawn to allow for reperfusion. Mice were then allowed to recover and observed for 1 day. […] Slices were photographed, and infarcted (unstained) and uninfarcted (red color) areas were measured with MCID software (InterFocus Imaging Ltd, Linton, UK) and integrated across all five slices. To account for the effect of edema, the infarcted area was estimated indirectly by subtracting the uninfarcted area in the ipsilateral hemisphere from the contralateral hemisphere, and expressing infarct volume as a percentage of contralateral hemisphere. […] (2000) J. Physiol. Pharmacol., 51:655-72). […] Animals were randomly assigned to treatment groups.

[6] = given prior to LCA occlusion (PRE)
[7] = AUDA-BE 10 mg/kg intraperitoneal
[8] = single injection of 10 mg/kg AUDA-BE

12-(3-adamantan-1-yl-ureido)-butyl acid [AUBA]
levels detected in homogenates of brain tissue [1]: not

O=C(c1ccccc1)C1OC1c1ccc(-c2ccccc2)cc1 (stereo not shown) [4-PCO, 4-phenylchalcone oxide]
cell survival after OGD [2]: improved cell survival significantly

CCCCCC1OC1C/C=C\C/C=C\C/C=C\CCCC(=O)O (stereo not shown) [14,15-EET]
Infarct Volume (mice [3]; PRO (given prior to reperfusion)): 12 ± 2 mm^3
infarct size after myocardial I/R compared to vehicle (mice [3]; given before ischemia or before reperfusion): significantly reduced
Infarct Volume (mice [3]; [6]): 10 ± 1 mm^3
bleeding in pilot studies following heparin administration (mice [3]; mouse, in vivo): excessive bleeding
reducing I/AAR, injection prior to reperfusion compared to pre-ischemic delivery (mice [3]; mouse, in vivo): less effective
cell survival after OGD [2]: improved cell survival
cell death (propidium iodide, % of all cells) ([2]; excess 14,15-EET (1 μM) in Arg287Gln-transduced cardiomyocytes, 1.5 hours OGD, 3 hours re-oxygenation): 45±1%
infarct size after MCAO (mice [4]; 14,15-EET 1 μg over 24 hours via osmotic minipump, jugular vein, vehicle 34.5±8.6%): 10.9±4.3%

CCCCCC1OC1CCCCCCC/C=C\CCCC(=O)O (stereo not shown) [14,15-EEZE, 14,15-epoxyeicosa-5(Z)-enoic acid]
infarct size after MCAO (mice [4]; sEHKO mice, 10 μg over 24 hours via minipump, mean±SD, vehicle-treated sEHKO 9.1±9.5): 9.4±12.4

O=C(O)CCCCCCCCCCCNC(=O)NC12CC3CC(CC(C3)C1)C2 [AUDA, 12-(3-adamantan-1-yl-ureido)-dodecanoic acid]
peak concentration in plasma [5, 7]: 52 nmol/L
time of peak concentration in plasma [5, 7]: 1 h
half time of elimination in plasma ([5]; AUDA-BE 10 mg/kg intraperitoneal, non-compartmental model): 7 h
maximum concentration in plasma ([5]; AUDA-BE 40 mg/kg intraperitoneal, within the first hour): 4 µmol/L
MRT ([5]; C57Bl/6, mouse, plasma, ip, 10 mg/kg, read-out: mean residence time in plasma): 9 h
MRT ([1]; C57Bl/6, mouse, brain, intraperitoneal, 10 mg/kg, read-out: mean residence time in brain): 6 h
levels detected in homogenates of brain tissue [1]: significant levels
half-time elimination in brain [1, 8]: 4 h
time to maximum concentration in brain [1, 8]: ≤ 3 h

C#CCOc1ccccc1CCCCCC(=O)NS(C)(=O)=O [MS-PPOH, N-methylsulfonyl-6-(2-propargyloxyphenyl)hexanamide]
infarct size after MCAO (C57Bl/6 mice): 24±6%

C=CCN1C[C@H](C)N([C@@H](c2ccccc2)c2ccc(C(=O)N(CC)CC)cc2)C[C@H]1C [SNC-162]
Infarct Volume (mice [3]; [6]): 9 ± 2 mm^3
